# Legend:
# TLR7 [1] = biological target: T1, TLR7 (Homo sapiens, UniProt Q9NYK1); test: IFN-α1-luciferase reporter assay in genetically modified Namalwa cells, TLR7; type: cell-based; set-up: expressed in transfected cells; host or cells: Namalwa (ATCC CRL-1432); settings: 10 μM IRM, 18 hours
# T1 sequence (Q9NYK1 27-1049): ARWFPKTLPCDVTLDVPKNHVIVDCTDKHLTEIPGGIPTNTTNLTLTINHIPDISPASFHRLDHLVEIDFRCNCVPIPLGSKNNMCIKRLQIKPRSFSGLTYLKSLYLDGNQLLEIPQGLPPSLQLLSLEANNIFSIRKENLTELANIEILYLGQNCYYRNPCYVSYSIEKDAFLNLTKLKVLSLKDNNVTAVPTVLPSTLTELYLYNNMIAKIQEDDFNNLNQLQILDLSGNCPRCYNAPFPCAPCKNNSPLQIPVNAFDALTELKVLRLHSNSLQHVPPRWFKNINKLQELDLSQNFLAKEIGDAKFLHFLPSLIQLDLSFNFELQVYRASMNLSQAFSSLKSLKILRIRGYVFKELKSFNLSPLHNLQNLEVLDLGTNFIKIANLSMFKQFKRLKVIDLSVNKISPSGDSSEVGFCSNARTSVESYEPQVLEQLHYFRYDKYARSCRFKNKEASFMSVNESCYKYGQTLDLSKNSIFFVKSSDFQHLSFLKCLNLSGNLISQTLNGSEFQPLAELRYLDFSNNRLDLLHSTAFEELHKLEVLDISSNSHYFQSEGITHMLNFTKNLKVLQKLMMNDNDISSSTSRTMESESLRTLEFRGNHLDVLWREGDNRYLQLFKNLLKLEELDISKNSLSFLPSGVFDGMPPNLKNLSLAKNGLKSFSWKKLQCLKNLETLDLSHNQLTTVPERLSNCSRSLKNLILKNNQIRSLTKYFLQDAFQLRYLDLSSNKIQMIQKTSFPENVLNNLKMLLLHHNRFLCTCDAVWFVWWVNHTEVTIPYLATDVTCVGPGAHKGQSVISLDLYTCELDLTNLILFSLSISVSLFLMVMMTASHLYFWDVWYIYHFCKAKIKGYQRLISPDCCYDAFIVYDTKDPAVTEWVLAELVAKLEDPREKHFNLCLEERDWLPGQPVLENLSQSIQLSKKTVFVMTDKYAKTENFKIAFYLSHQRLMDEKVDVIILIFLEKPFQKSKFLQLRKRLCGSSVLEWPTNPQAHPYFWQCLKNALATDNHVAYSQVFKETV
# Description: Results are shown in Table 6 and are expressed as fold induction of IFN-α1 —induced luciferase signal, again with respect to a vehicle control.
# The assay identified TLR6-selective compounds (i.e., compounds that modulate TLR6-mediated activity, but not TLR7-mediated activity), TLR7-selective compounds (compounds that modulate TLR7-mediated activity, but not TLR6-mediated activity), and compounds that modulate cellular activity through both TLR6 and TLR7.
# Unless otherwise indicated, all incubations were performed at 37° C. with 5% CO2 at 98% humidity.
# Culture medium was prepared from complete RPMI 1640 medium (BioSource International, Inc., Camarillo, Calif.). Fetal bovine serum (Atlas Biologicals, Inc., Ft. Collins, Colo.) was added to a final concentration of 7.5% (vol/vol); L-glutamine (BioSource International, Inc.) was added to 5 mM; and sodium pyruvate (BioSource International, Inc.) was added to 1 mM.
# Namalwa cells were grown by incubation in culture medium overnight. Cells were harvested by centrifugation in a tabletop centrifuge (1200 RPM for 5 minutes), and then resuspended in phosphate buffered sucrose to a concentration of 1.3×10^7 cells/mL. […]
# The electroporated cells were suspended in 10 mLs of culture medium and incubated overnight. Dead cells and debris were removed after 24 hours using a MACS Dead Cell Removal kit (Miltenyi Biotec, Auburn, Calif.). Cells were resuspended in 10 mL of culture medium and incubated for an additional 24 hours.
# Transfected cells were selected by adding G418 (Promega Corp., Madison, Wis.) to a final concentration of 1 mg/mL and incubating the cells for seven days.
# The selected transfected cells were counted and resuspended to a concentration of 1×10^6 cell per mL in culture medium. 100 μl aliquots of cells were placed in the wells of a white-walled, white-bottomed 96-well plate (Corning, Inc., Corning, N.Y.). 1.0 μL of an IRM compound from Table 1 (prepared at 1 mM in 100% DMSO) was added to some cell aliquots so that the final concentration of IRM compound was 10 μM. As a positive control, some cell aliquots were incubated with Sendai virus instead of IRM compound. As a negative control, some cell aliquots were incubated with DMSO without IRM compound. In all cases, the cells were incubated for 18 hours.
# The plates were equilibrated to room temperature before one volume of reconstituted LucLight Plus (Packard Instruments, Meriden, Conn.) was added to each aliquot of cells. Each well of the plate was read on an LJL Analyst (LJL Biosystems, Inc., Sunnyvale, Calif.) set with a 5 minute dark adapt. Results are shown in Table 6 and are expressed as fold increase of the IFN-αl—induced luciferase signal compared to a DMSO control.
# TLR7 [2] = biological target: T1, TLR7; test: NFκB-luciferase reporter assay in HEK293 cells transfected with human TLR7 (HEK293-TLR7); type: cell-based; set-up: expressed in transfected cells; host or cells: HEK293 (ATCC CRL-1573), pIRES vector, G-418 selected; settings: HEK293-TLR7, 10 μM IRM, 16 hours
# Description: A compound was identified as increasing cellular activity mediated through a given TLR if it induced at least a two-fold increase in NFκB-induced luciferase signal compared to the control.
# HEK293 medium was prepared from 90% Minimum Essential Medium (MEM) with 2 mM L-glutamine and Earle's Balanced Salt Solution (Invitrogen Corp., Rockville, Md.) adjusted to contain 1.5 g/L sodium bicarbonate, 0.1 mM non-essential amino acids, and 1.0 mM sodium pyruvate; 10% heat-inactivated fetal calf serum. HEK293 cells were cultured by incubating cells in HEK293 medium overnight at 37° C., 8% CO2.
# The cells were co-transfected with (1) pIRES (BD Biosciences Clontech, Palo Alto, Calif.) either (a) unmodified (HEK293-vector), (b) containing an expressible human TLR7 gene (HEK293-TLR7), or (c) containing an expressible human TLR8 gene (HEK293-TLR8), and (2) NFκB-luc reporter (Stratagene, La Jolla, Calif.) in a 10:1 ratio with Fugene 6 transfection reagent (Roche Diagnostics Corp., Indianapolis, Ind.) following the manufacturer's instructions.
# The cells were stimulated with 1 μL of IRM compounds at 1 mM in DMSO (final IRM concentration of 10 μM) or 1 μL DMSO as a control. The plates were then incubated an additional 16 hours at 37° C., 5% CO2. The luciferase signal was read using the LucLite kit (Packard Instrument Co., Meriden, Conn.). Luminescence was measured on an LMAX luminometer (Molecular Devices Corp., Sunnyvale, Calif.).
Compound,TLR7: fold increase of the IFN-α1-induced luciferase signal compared to a DMSO control (TLR7 [1]),TLR7: fold increase of NFκB-induced luciferase signal compared to a DMSO control (TLR7 [2])
"CCOCc1nc2c(N)nc3ccccc3c2n1CC(C)C [IRM1, 2-(ethoxymethyl)-1-(2-methylpropyl)-1H-imidazo[4,5-c]quinolin-4-amine]",2.43 fold increase,4.05 fold increase
"CCCCc1nc2c(N)nc3ccccc3c2n1CCCCCS(C)(=O)=O [IRM6, 2-butyl-1-[5-(methylsulfonyl)pentyl]-1H-imidazo[4,5-c]quinolin-4-amine]",3.09 fold increase,8.46 fold increase
"CCc1nc2c(N)nc3ccccc3c2n1CCCCNC(=O)C1CCCCC1 [IRM8, N-[4-(4-amino-2-ethyl-1H-imidazo[4,5-c]quinolin-1-yl)butyl]cyclohexanecarboxamide]",2.89 fold increase,6.04 fold increase
"CCc1nc2c(N)nc3ccccc3c2n1CCCCSc1cc(Cl)cc(Cl)c1 [IRM14, 1-{4-[(3,5-dichlorophenyl)thio]butyl}-2-ethyl-1H-imidazo[4,5-c]quinolin-4-amine]",1.40 fold increase,0.67 fold increase
"CCOCc1nc2c(N)nc3c(c2n1CC(C)(C)O)CCCC3 [IRM16, 4-amino-2-ethoxymethyl-α,α-dimethyl-6,7,8,9-tetrahydro-1H-imidazo[4,5-c]quinoline-1-ethanol]",2.96 fold increase,5.54 fold increase
"COCCc1nc2c(N)nc3c(c2n1CC(C)(C)NS(C)(=O)=O)CCCC3 [IRM22, N-{2-[4-amino-2-(2-methoxyethyl)-6,7,8,9-tetrahydro-1H-imidazo[4,5-c]quinolin-1-yl]-1,1-dimethylethyl}methanesulfonamide]",3.59 fold increase,6.57 fold increase

# Second part, the molecule after the results:
TLR7: fold increase of the IFN-α1-induced luciferase signal compared to a DMSO control (TLR7 [1]),TLR7: fold increase of NFκB-induced luciferase signal compared to a DMSO control (TLR7 [2]),Compound
2.86 fold increase,6.37 fold increase,"COCCc1nc2c(N)nc3ccccc3c2n1CCOCCN(C)C(=O)C1CCCCC1 [IRM3, N-(2-{2-[4-amino-2-(2-methoxyethyl)-1H-imidazo[4,5-c]quinolin-1-yl]ethoxy}ethyl)-N-methylcyclohexanecarboxamide]"
2.63 fold increase,2.45 fold increase,"COCCc1nc2c(N)nc3ccccc3c2n1CCOCCNC(=O)Nc1ccccc1 [IRM19, N-(2-{2-[4-amino-2-(2-methoxyethyl)-1H-imidazo[4,5-c]quinolin-1-yl)ethoxy}ethyl)-N′-phenylurea]"
3.48 fold increase,7.08 fold increase,"CCC(C)NC(=S)NCCn1c(CCOC)nc2c(N)nc3ccccc3c21 (stereo not drawn) [IRM21, N-{2-[4-amino-2-(2-methoxyethyl)-1H-imidazo[4,5-c]quinolin-1-yl]ethyl}-N′-sec-butylthiourea]"

# From patent publication US20040171086A1, “Selective modulation of TLR-mediated biological activity” (3M Innovative Properties Company, priority 2003, published 2004)
